According to PubChem BioAssay (NCI):
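1) Cells in 96-well plates. 2) Compound, 48 h, 5 concentrations. 3) Linear interpolation between surrounding doses. 4) Unreached endpoint = highest concentration. The concentration for 50% growth inhibition is given as GI50. TGI: total growth inhibition.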

Legend:
Test in all cases: NCI-60 cell line screen, 48 h
OVCAR-3 ovarian = tested on: OVCAR-3 ovarian
LOX IMVI melanoma = tested on: LOX IMVI melanoma
786-0 renal = tested on: 786-0 renal
SK-MEL-5 melanoma = tested on: SK-MEL-5 melanoma
BT-549 breast = tested on: BT-549 breast
OVCAR-4 ovarian = tested on: OVCAR-4 ovarian
U251 CNS = tested on: U251 CNS
SK-OV-3 ovarian = tested on: SK-OV-3 ovarian
SK-MEL-28 melanoma = tested on: SK-MEL-28 melanoma
DU-145 prostate = tested on: DU-145 prostate

## O=C1NC(=O)C(=C/C=C/c2ccccc2)C(=O)N1
OVCAR-3 ovarian
  GI50: 1.53 µM
  TGI: 3.97 µM
LOX IMVI melanoma
  GI50: 1.55 µM
  TGI: 3.3 µM
786-0 renal
  GI50: 3.11 µM
  TGI: 11 µM
SK-MEL-5 melanoma
  GI50: 2.24 µM
  TGI: 4.94 µM
BT-549 breast
  GI50: 2.32 µM
  TGI: 6.79 µM
OVCAR-4 ovarian
  GI50: 5.37 µM
  TGI: 17.2 µM
U251 CNS
  GI50: 2.5 µM
  TGI: 10.3 µM
SK-OV-3 ovarian
  GI50: 16.5 µM
  TGI: 30.5 µM
SK-MEL-28 melanoma
  GI50: 1.91 µM
  TGI: 3.59 µM
DU-145 prostate
  GI50: 2.13 µM
  TGI: 4.87 µM

## Cc1ccc(-c2cc3c(SCC(=O)Nc4cc(C(F)(F)F)ccc4Cl)nccn3n2)cc1
OVCAR-3 ovarian
  GI50: > 100 µM
  TGI: > 100 µM
LOX IMVI melanoma
  GI50: > 100 µM
  TGI: > 100 µM
786-0 renal
  GI50: 10.1 µM
  TGI: 87.2 µM
SK-MEL-5 melanoma
  GI50: > 100 µM
  TGI: > 100 µM
BT-549 breast
  GI50: > 100 µM
  TGI: > 100 µM
OVCAR-4 ovarian
  GI50: 2.86 µM
  TGI: > 100 µM
U251 CNS
  GI50: 3.4 µM
  TGI: > 100 µM
SK-OV-3 ovarian
  GI50: 69.4 µM
  TGI: > 100 µM
SK-MEL-28 melanoma
  GI50: > 100 µM
  TGI: > 100 µM
DU-145 prostate
  GI50: > 100 µM
  TGI: > 100 µM

## COc1ccc(C(SCC(N)C(=O)O)(c2ccccc2)c2ccccc2)cc1 (stereo not given)
OVCAR-3 ovarian
  GI50: 0.0677 µM
  TGI: 0.503 µM
LOX IMVI melanoma
  GI50: 0.668 µM
  TGI: 25.7 µM
786-0 renal
  GI50: 0.209 µM
SK-MEL-5 melanoma
  GI50: 0.0623 µM
  TGI: 19.7 µM
BT-549 breast
  GI50: 2.72 µM
  TGI: > 100 µM
OVCAR-4 ovarian
  GI50: 29.7 µM
  TGI: > 100 µM
U251 CNS
  GI50: 0.0497 µM
  TGI: > 57 µM
SK-OV-3 ovarian
  GI50: 0.19 µM
  TGI: > 100 µM
SK-MEL-28 melanoma
  GI50: 3.12 µM
  TGI: > 100 µM
DU-145 prostate
  GI50: 0.272 µM
  TGI: 0.7 µM

## COc1cc(-c2nc3ccccc3s2)ccc1NC(=O)COc1ccc(Cl)cc1
OVCAR-3 ovarian
  GI50: 6.8 µM
  TGI: > 100 µM
LOX IMVI melanoma
  GI50: 4.69 µM
  TGI: > 100 µM
786-0 renal
  GI50: 1.96 µM
  TGI: 4 µM
SK-MEL-5 melanoma
  GI50: 8.68 µM
  TGI: > 100 µM
BT-549 breast
  GI50: > 100 µM
  TGI: > 100 µM
OVCAR-4 ovarian
  GI50: 3.9 µM
  TGI: 93.2 µM
U251 CNS
  GI50: 2.23 µM
  TGI: 6.8 µM
SK-OV-3 ovarian
  GI50: 36.5 µM
  TGI: > 100 µM
SK-MEL-28 melanoma
  GI50: 6.33 µM
  TGI: 71.3 µM
DU-145 prostate
  GI50: 8.28 µM
  TGI: > 100 µM

## Cc1cc(O)ccc1C1=NN(c2ccc(S(C)(=O)=O)cc2)C(=O)CC1
OVCAR-3 ovarian
  GI50: 3.41 µM
  TGI: 9.44 µM
LOX IMVI melanoma
  GI50: 7.25 µM
  TGI: > 100 µM
786-0 renal
  GI50: 92.5 µM
  TGI: > 100 µM
SK-MEL-5 melanoma
  GI50: 5.49 µM
  TGI: > 100 µM
BT-549 breast
  GI50: 4.97 µM
  TGI: > 100 µM
OVCAR-4 ovarian
  GI50: 76.9 µM
  TGI: > 100 µM
U251 CNS
  GI50: 4.3 µM
  TGI: > 100 µM
SK-OV-3 ovarian
  GI50: 9.77 µM
  TGI: > 100 µM
SK-MEL-28 melanoma
  GI50: 9.55 µM
  TGI: > 100 µM
DU-145 prostate
  GI50: 24.7 µM
  TGI: > 100 µM

## CNC(=O)OCc1c2ccncc2c(C)c2c1[nH]c1ccccc12
OVCAR-3 ovarian
  TGI: 1.74 µM
LOX IMVI melanoma
  TGI: 0.584 µM
786-0 renal
  TGI: 14.2 µM
SK-MEL-5 melanoma
  TGI: 0.773 µM
BT-549 breast
  TGI: 1.63 µM
OVCAR-4 ovarian
  TGI: 1.38 µM
U251 CNS
  TGI: 1.8 µM
SK-OV-3 ovarian
  TGI: 1.78 µM
SK-MEL-28 melanoma
  TGI: 2.25 µM
DU-145 prostate
  TGI: 6.18 µM

## Clc1cccc(Cl)c1C1CSc2ccccc2N=C1c1ccccc1 (stereo not given)
OVCAR-3 ovarian
  GI50: 3.92 µM
  TGI: 13.4 µM
LOX IMVI melanoma
  GI50: 1.75 µM
  TGI: 4.03 µM
786-0 renal
  GI50: 10.7 µM
  TGI: 23 µM
SK-MEL-5 melanoma
  GI50: 4.74 µM
  TGI: 18.1 µM
BT-549 breast
  GI50: 5.19 µM
  TGI: 17.1 µM
OVCAR-4 ovarian
  GI50: 3.11 µM
  TGI: 16 µM
U251 CNS
  GI50: 2.11 µM
  TGI: 4.54 µM
SK-OV-3 ovarian
  GI50: 11.5 µM
  TGI: 24.4 µM
SK-MEL-28 melanoma
  GI50: 4.82 µM
  TGI: 17.3 µM
DU-145 prostate
  GI50: 5.74 µM
  TGI: 18.3 µM

## C/C(=C\CCc1ccoc1)CC/C=C(\C)CCCN1CCOCC1
OVCAR-3 ovarian
  GI50: 3.73 µM
  TGI: 15.3 µM
LOX IMVI melanoma
  GI50: 6.91 µM
  TGI: 20.7 µM
786-0 renal
  GI50: 1.83 µM
  TGI: 4.18 µM
SK-MEL-5 melanoma
  GI50: 1.7 µM
  TGI: 3.52 µM
BT-549 breast
  GI50: 1.88 µM
  TGI: 8.74 µM
OVCAR-4 ovarian
  GI50: 3.21 µM
  TGI: 14.3 µM
U251 CNS
  GI50: 6.29 µM
  TGI: 19.1 µM
SK-OV-3 ovarian
  GI50: 7.06 µM
  TGI: 19.7 µM
SK-MEL-28 melanoma
  GI50: 10.3 µM
  TGI: 24 µM
DU-145 prostate
  GI50: 10.3 µM
  TGI: 22.3 µM

## Clc1ccc2c(c1)N(CCCN1CCCC1)c1ccccc1S2
OVCAR-3 ovarian
  GI50: 10.4 µM
  TGI: 22.9 µM
LOX IMVI melanoma
  GI50: 2.5 µM
  TGI: 7.14 µM
786-0 renal
  GI50: 5.38 µM
  TGI: 19.3 µM
SK-MEL-5 melanoma
  GI50: 1.83 µM
  TGI: 3.32 µM
BT-549 breast
  GI50: 11.8 µM
  TGI: 24.4 µM
OVCAR-4 ovarian
  GI50: 7.82 µM
  TGI: 21.2 µM
U251 CNS
  GI50: 6.96 µM
  TGI: 20.5 µM
SK-OV-3 ovarian
  GI50: 6.22 µM
  TGI: 19 µM
SK-MEL-28 melanoma
  GI50: 6.6 µM
  TGI: 21.4 µM
DU-145 prostate
  GI50: 8.61 µM
  TGI: 20.9 µM

## O=C1C(=O)c2c(nc3ccc(Br)cn23)-c2ccccc21
OVCAR-3 ovarian
  GI50: 0.265 µM
  TGI: 0.889 µM
LOX IMVI melanoma
  GI50: 0.242 µM
  TGI: 0.689 µM
786-0 renal
  GI50: 1.85 µM
  TGI: 3.36 µM
SK-MEL-5 melanoma
  GI50: 0.317 µM
  TGI: 0.788 µM
BT-549 breast
  GI50: 1.37 µM
  TGI: 2.67 µM
OVCAR-4 ovarian
  GI50: 0.191 µM
  TGI: 0.398 µM
U251 CNS
  GI50: 0.588 µM
  TGI: 1.87 µM
SK-OV-3 ovarian
  GI50: 1.71 µM
  TGI: 3.09 µM
SK-MEL-28 melanoma
  GI50: 0.606 µM
  TGI: 1.56 µM
DU-145 prostate
  GI50: 0.483 µM
  TGI: 1.03 µM

## NC(=O)c1ccc(NN=O)nc1
OVCAR-3 ovarian
  TGI: > 100 µM
LOX IMVI melanoma
  GI50: > 100 µM
  TGI: > 100 µM
786-0 renal
  TGI: > 100 µM
SK-MEL-5 melanoma
  TGI: > 100 µM
BT-549 breast
  TGI: > 100 µM
OVCAR-4 ovarian
  TGI: > 100 µM
U251 CNS
  TGI: > 100 µM
SK-OV-3 ovarian
  TGI: > 100 µM
SK-MEL-28 melanoma
  TGI: > 100 µM
DU-145 prostate
  TGI: > 100 µM

## COc1ccc2cc(-c3cc4c(oc3=O)-c3ccccc3OC4O)c(=O)oc2c1 (stereo not given)
OVCAR-3 ovarian
  GI50: 15.4 µM
  TGI: 30.6 µM
LOX IMVI melanoma
  GI50: 15.9 µM
  TGI: 31.2 µM
786-0 renal
  GI50: 25.4 µM
  TGI: 41.5 µM
SK-MEL-5 melanoma
  GI50: 13.2 µM
  TGI: 26.9 µM
BT-549 breast
  GI50: 14.7 µM
  TGI: 28.2 µM
OVCAR-4 ovarian
  GI50: 12.3 µM
  TGI: 28.9 µM
U251 CNS
  GI50: 16.4 µM
  TGI: 31.4 µM
SK-OV-3 ovarian
  GI50: 17.1 µM
  TGI: 32.3 µM
SK-MEL-28 melanoma
  GI50: 16.7 µM
  TGI: 32.2 µM
DU-145 prostate
  GI50: 14.3 µM
  TGI: 27.4 µM
